Patent US10988465B2, “CXCR4 inhibitors and uses thereof” (X4 Pharmaceuticals, Inc., priority 2016, dated 2021)
Read-outs that look alike come from different tables or passages of the source.

How the values were obtained:
[1] = molecular target: T1, CXCR-4 transfected U87 cell line (U87.CXCR4) (Homo sapiens, UniProt P61073); assay: Intracellular CXCL-12-induced calcium mobilization assay (FLIPR); type: cell-based; conditions: U87.CXCR4 cells; CXCL-12 25-50 ng/mL; compound added 15 min before; read-out: IC50 CXCL-12 Ca^2+ flux U87.CXCR4+
T1 construct: expressed in transfected cells; host or cells: U87 (U87.CXCR4)
T1 sequence (P61073 whole entry): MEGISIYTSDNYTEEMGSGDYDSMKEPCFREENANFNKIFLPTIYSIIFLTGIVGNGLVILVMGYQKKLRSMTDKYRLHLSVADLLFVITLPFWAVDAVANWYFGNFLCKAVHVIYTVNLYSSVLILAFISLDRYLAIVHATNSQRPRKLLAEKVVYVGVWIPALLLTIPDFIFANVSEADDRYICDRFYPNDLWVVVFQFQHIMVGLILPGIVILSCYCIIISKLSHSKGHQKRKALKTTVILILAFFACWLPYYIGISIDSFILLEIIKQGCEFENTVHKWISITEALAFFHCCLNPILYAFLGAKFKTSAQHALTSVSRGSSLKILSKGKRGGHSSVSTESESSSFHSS
Outline: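 U87 cells stably expressing human CXCR4, loaded with Fluo-2 AM (4 μM final) for 45 min at 37 °C in HBSS/20 mM HEPES/0.2% BSA, pH 7.4. Calcium flux triggered by CXCL-12 (25-50 ng/mL) was followed by FLIPR fluorescence over time at 37 °C.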

[2] = molecular target: T2, Jurkat cells expressing CXCR4 (Homo sapiens, UniProt P61073); assay: Chemokine (CXCL12-AF647) binding inhibition assay; conditions: CXCL12-AF647 25 ng/mL, read-out: IC50 CXCL-12 binding Jurkat
T2 construct: endogenous in cells; host or cells: Jurkat
T2 sequence (P61073 whole entry): as above
Outline: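 Cells in HBSS, 20 mM HEPES, 0.2% BSA, pH 7.4, preincubated 15 min at room temperature with compound, then 25 ng/mL CXCL12-AF647 for 30 min. After washing and paraformaldehyde fixation, bound ligand read by flow cytometry; percent inhibition calculated from MFI relative to unlabeled and ligand-only controls.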

[3] = Mouse brain uptake assay (MBUA), 3 mg/kg IV, 0-24 h, 4 time points; type: in vivo, male CD1 mice
Experimental: Example 38: Pharmacokinetics and Brain Penetration Experiment to Determine Brain and Plasma Concentrations of Compounds after IV Administration to Male CD1 Mice
The study design (9 animals) consisted of administrating the drug (IV: 3 mg/kg (5 mL/kg) via tail vein injection) and collecting samples at terminal bleeding for plasma and brain at 0.083, 0.5 and 1 h. The IV dosing solution was prepared in 50 mM citrate buffer (pH 4.0) at 0.6 mg/mL. The blood collection was performed as follows: the animal was restrained manually and approximately 150 μL blood/time point was collected into a dipotassium EDTA tube via retro orbital puncture under anesthesia with isoflurane. The blood sample was put on ice and centrifuged to obtain a plasma sample (2000 g, 5 min under 4° C.) within 15 minutes. The brain collection was performed as follows: a mid-line incision was made in the animal's scalp and the skin was retracted. Using small bone cutters and rongeurs, the skull overlying the brain was removed. The brain was removed using a spatula and the brain rinsed with cold saline. The brain was placed in screw-top tubes, and the tubes were stored at −70° C. until analysis.
An aliquot of 30 μL sample was added to 150 μL MeCN containing 50 ng/mL IS (Dexamethasone). The mixture was vortexed for 5 min and centrifuged at 14,000 rpm for 5 min. An aliquot of 5 μL supernatant was injected for LC-MS/MS analysis.
An aliquot of 30 μL brain homogenate (brain:PBS=1:3, w/v) sample was added to 150 μL IS in MeCN (Dexamethasone, 50 ng/mL). The mixture was vortexed for 5 min and centrifuged at 14,000 rpm for 5 min. An aliquot of 5 μL supernatant was injected for LC-MS/MS analysis.
The sample analysis was performed on LCMS/MS-003 (API4000, triple quadruple) under the following conditions: positive ion, ESI, MRM detection using dexamethasone as internal standard. HPLC conditions: mobile phase A: H2O (0.025% formic acid (FA) with 1 mM NH4OAc); mobile phase B: MeOH (0.025% FA with 1 mM NH4OAc) on Waters X-Bridge C18 (2.1×50 mm, 2.5 μm) column at 60° C.
A similar experiment was performed with 4 time points taken from 0-24 h.

[4] = in vitro; conditions: human, Caco-2, pH 7.4
Outline: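 Caco-2 monolayers, checked by TEER with Lucifer yellow as marker, were dosed with 10 μM compound in HBSS pH 7.4 in A-to-B and B-to-A directions. Incubation was 90 min at 37° C, in duplicate. Samples were quantified by LC-MS/MS and Papp calculated.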

Work on `CN1[C@@H](c2nc3cccc(N4CCN5CCCC5C4)c3[nH]2)CCC[C@H]1c1ncccc1Cl` (stereo partly shown) [I-96] yielded an IC50 [1] of 100 to 1000 nM, an IC50 [2] of 0.01 to 100 nM and a Kp ([3]; male, CD1, mouse, brain/plasma, iv, 3 mg/kg) of 31.2. For the same compound, the clearance ([3]; male, CD1, plasma, mouse, 3 mg/kg IV, 0-24 h, 4 time points) was 102 mL/min/kg, the half-life ([3]; male, CD1, plasma, mouse, 3 mg/kg IV, 0-24 h, 4 time points, read-out: t½ (converted)) was 13.7 min and the AUC(0-t) ([3]; male, CD1, brain, mouse, 3 mg/kg IV, 0-24 h, read-out: AUClast (b)) was 15300 ng·h/mL. It also gave an AUC(0-t) ([3]; male, CD1, plasma, mouse, 3 mg/kg IV, 0-24 h, read-out: AUClast (P)) of 14800 ng·h/mL, a Kp uu ([3]; male, CD1, unbound brain/unbound plasma, mouse, 3 mg/kg IV, 0-24 h) of 11.3 and a fraction unbound ([3]; mouse, fraction unbound to brain proteins, read-out: Fu (b) %) of 0.012. It also gave a fraction unbound ([3]; mouse, fraction unbound to plasma proteins, read-out: Fu (p) %) of 0.033.
`Cc1cccnc1[C@@H]1CCC[C@H](c2ncc[nH]2)N1Cc1ccccc1-n1cccn1` [I-166] gave an IC50 [1] of no less than 1000 nM, an IC50 [2] of 100 to 1000 nM and a Papp A→B at 90 min, 10 μM [4] of 10 to 30 ×10⁻⁶ cm/s. It also gave a Papp B→A at 90 min, 10 μM [4] of 10 to 30 ×10⁻⁶ cm/s and an efflux ratio at 90 min, 10 μM [4] of 0.1 to 10.
Work on `Cc1cccnc1[C@@H]1CCC[C@H](c2nccn2CC2CCN(C)CC2)N1` [I-175] yielded an IC50 [1] of 100 to 1000 nM, an IC50 [2] of 0.01 to 100 nM and a Papp A→B at 90 min, 10 μM [4] of 0.1 to 10 ×10⁻⁶ cm/s. For the same compound, the Papp B→A at 90 min, 10 μM [4] was 10 to 30 ×10⁻⁶ cm/s and the efflux ratio at 90 min, 10 μM [4] was 10 to 30.
In the case of `Cc1cccnc1[C@@H]1CCC[C@H](c2nc3cccc(N4CCN(C5CC5)CC4)c3[nH]2)N1` [I-125], the IC50 [1] is reported as 0.01 to 100 nM, the IC50 [2] is reported as 0.01 to 100 nM and the Papp A→B at 90 min, 10 μM [4] is reported as 10 to 30 ×10⁻⁶ cm/s. For the same compound, the Papp B→A at 90 min, 10 μM [4] was 10 to 30 ×10⁻⁶ cm/s and the efflux ratio at 90 min, 10 μM [4] was 0.1 to 10.
Work on `CN1CCC(n2ccnc2[C@H]2CCC[C@@H](c3ccccn3)N2)CC1` [I-180] yielded an IC50 [1] of no less than 1000 nM, an IC50 [2] of no less than 1000 nM and a Papp A→B at 90 min, 10 μM [4] of 0.1 to 10 ×10⁻⁶ cm/s. For the same compound, the Papp B→A at 90 min, 10 μM [4] was 10 to 30 ×10⁻⁶ cm/s and the efflux ratio at 90 min, 10 μM [4] was 0.1 to 10.
Work on `COCCCn1c([C@H]2CCC[C@@H](c3ncccc3C)N2)nc2ccccc21` [I-158] yielded an IC50 [1] of no less than 1000 nM, an IC50 [2] of no less than 1000 nM and a Papp A→B at 90 min, 10 μM [4] of 10 to 30 ×10⁻⁶ cm/s. The Papp B→A at 90 min, 10 μM [4] was 10 to 30 ×10⁻⁶ cm/s and the efflux ratio at 90 min, 10 μM [4] was 0.1 to 10.
`CC(C)c1cccnc1[C@@H]1CCC[C@H](c2nc3cccc(N4CCN(C)CC4)c3[nH]2)N1C` [I-49] gave an IC50 [1] of 100 to 1000 nM, an IC50 [2] of 0.01 to 100 nM and a Papp A→B at 90 min, 10 μM [4] of 10 to 30 ×10⁻⁶ cm/s. For the same compound, the Papp B→A at 90 min, 10 μM [4] was 0.1 to 10 ×10⁻⁶ cm/s and the efflux ratio at 90 min, 10 μM [4] was 0.1 to 10.
With `Cc1cccnc1[C@@H]1CCC[C@H](c2nc3c(N4CCN(C)CC4)cccc3n2C)N1C` [I-36] the IC50 [1] was no less than 1000 nM, the IC50 [2] was no less than 1000 nM and the Papp A→B at 90 min, 10 μM [4] was 10 to 30 ×10⁻⁶ cm/s. It also gave a Papp B→A at 90 min, 10 μM [4] of 10 to 30 ×10⁻⁶ cm/s and an efflux ratio at 90 min, 10 μM [4] of 0.1 to 10.
`Cc1cccnc1[C@@H]1CCC[C@H](c2nc3ccccc3n2CCCCN(C)C)N1C` [I-38] gave an IC50 [1] of 100 to 1000 nM, an IC50 [2] of 0.01 to 100 nM and a Papp A→B at 90 min, 10 μM [4] of 0.1 to 10 ×10⁻⁶ cm/s. For the same compound, the Papp B→A at 90 min, 10 μM [4] was 10 to 30 ×10⁻⁶ cm/s and the efflux ratio at 90 min, 10 μM [4] was 0.1 to 10.
`Cc1cccnc1[C@@H]1CCC[C@H](c2nc3ccccc3n2CCCN(C)C)N1C` [I-5, N,N-dimethyl-3-(2-((2R,6S)-1-methyl-6-(3-methylpyridin-2-yl)piperidin-2-yl)-1H-benzo[d]imidazol-1-yl)propan-1-amine] gave an IC50 [1] of 0.01 to 100 nM, an IC50 [2] of 0.01 to 100 nM and a Papp A→B at 90 min, 10 μM [4] of 0.1 to 10 ×10⁻⁶ cm/s. It also gave a Papp B→A at 90 min, 10 μM [4] of 0.1 to 10 ×10⁻⁶ cm/s and an efflux ratio at 90 min, 10 μM [4] of 0.1 to 10.
In the case of `Cc1cccnc1[C@@H]1CCC[C@H](c2nc3cccc(N4CCN(C)CC4)c3n2C)N1C` [I-35], the IC50 [1] is reported as 0.01 to 100 nM, the IC50 [2] is reported as 0.01 to 100 nM and the Papp A→B at 90 min, 10 μM [4] is reported as 0.1 to 10 ×10⁻⁶ cm/s. The Papp B→A at 90 min, 10 μM [4] was 0.1 to 10 ×10⁻⁶ cm/s and the efflux ratio at 90 min, 10 μM [4] was 0.1 to 10.
`CCN1CCN(c2cccc3nc([C@H]4CCC[C@@H](c5ncccc5Cl)N4)[nH]c23)CC1` [I-149] showed an IC50 [1] of 0.01 to 100 nM, an IC50 [2] of 0.01 to 100 nM and a Papp A→B at 90 min, 10 μM [4] of 10 to 30 ×10⁻⁶ cm/s. It also gave a Papp B→A at 90 min, 10 μM [4] of 10 to 30 ×10⁻⁶ cm/s and an efflux ratio at 90 min, 10 μM [4] of 0.1 to 10.
`Cc1cccnc1[C@@H]1CCC[C@H](c2nc3ccccc3[nH]2)N1CCc1cn2ccccc2n1` [I-164] gave an IC50 [1] of 0.01 to 100 nM, an IC50 [2] of 0.01 to 100 nM and a Papp A→B at 90 min, 10 μM [4] of 0.1 to 10 ×10⁻⁶ cm/s. For the same compound, the Papp B→A at 90 min, 10 μM [4] was 10 to 30 ×10⁻⁶ cm/s and the efflux ratio at 90 min, 10 μM [4] was 0.1 to 10.
